Measured values published in PubChem BioAssay AID248 (DTP/NCI, 2004).
Several values for one entry are separate records, joined by “and”; a condition that tells them apart may be missing. Equal values may be shown once. Inconclusive results and toxic doses are left out. No stated cut-off is given here; in the data, active means T/C of 150% or more; inactive means T/C below 125%.

System: L1210 leukemia ip in BDF1 mice, survival T/C
Test: NCI In Vivo Anticancer Drug Screen. Data for tumor model L1210 Leukemia (intraperitoneal) in B6D2F1 (BDF1) mice
Conditions: endpoint: mean survival time, higher = longer survival
Outline: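 Ratio derived from survival: compound-dosed mice over vehicle-dosed mice, all bearing a transplantable tumor.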

[1] = dose: 100.0 mg/kg/injection, schedule: Q01DX001 (ip), vehicle: Klucel (hydroxypropylcellulose) (HPC)
[2] = dose: 200.0 mg/kg/injection, schedule: Q01DX001 (ip), vehicle: Klucel (hydroxypropylcellulose) (HPC)
[3] = dose: 100.0 mg/kg/injection, schedule: Q04DX003 (ip), vehicle: saline with Tween-80
[4] = dose: 200.0 mg/kg/injection, schedule: Q04DX003 (ip), vehicle: saline with Tween-80
[5] = dose: 100.0 mg/kg/injection, schedule: Q04DX003 (ip), vehicle: Klucel (hydroxypropylcellulose) (HPC)
[6] = dose: 200.0 mg/kg/injection, schedule: Q04DX003 (ip), vehicle: Klucel (hydroxypropylcellulose) (HPC)
[7] = dose: 400.0 mg/kg/injection, schedule: Q04DX003 (ip), vehicle: Klucel (hydroxypropylcellulose) (HPC)

Measured: T/C

O=c1c(N=Nc2ccc(Cl)cc2)c(O)n(-c2ccc(Cl)cc2)c(=S)n1-c1ccccc1
inactive: dose: 50.0 mg/kg/injection, schedule: Q01DX001 (ip), vehicle: Klucel (hydroxypropylcellulose) (HPC) 108 % of control | [1] 94 % of control | [2] 100 % of control

COC(=O)C(N)CSC (centres undefined)
inactive: dose: 100.0 mg/kg/injection, schedule: Q01DX009 (ip), vehicle: saline 101 % of control | dose: 100.0 mg/kg/injection, schedule: Q04DX003 (ip), vehicle: saline 101 % of control | dose: 200.0 mg/kg/injection, schedule: Q01DX009 (ip), vehicle: saline 98 % of control | dose: 200.0 mg/kg/injection, schedule: Q04DX003 (ip), vehicle: saline 97 % of control | dose: 400.0 mg/kg/injection, schedule: Q01DX009 (ip), vehicle: saline 95 % of control | dose: 400.0 mg/kg/injection, schedule: Q04DX003 (ip), vehicle: saline 101 % of control

CCc1c(N)nc(N)[nH]c1=O
inactive: dose: 44.0 mg/kg/injection, schedule: Q01DX001 (ip), vehicle: Klucel (hydroxypropylcellulose) (HPC) 102 % of control | dose: 67.0 mg/kg/injection, schedule: Q01DX001 (ip), vehicle: Klucel (hydroxypropylcellulose) (HPC) 96 % of control | [1] 98 % of control | dose: 150.0 mg/kg/injection, schedule: Q01DX001 (ip), vehicle: Klucel (hydroxypropylcellulose) (HPC) 96 % of control | [2] 104 % of control

O=C1NC(=O)C(c2cccc(F)c2)N1 (centres undefined)
inactive: dose: 50.0 mg/kg/injection, schedule: Q01DX001 (ip), vehicle: saline 97 % of control | dose: 100.0 mg/kg/injection, schedule: Q01DX001 (ip), vehicle: saline 94 % of control | dose: 200.0 mg/kg/injection, schedule: Q01DX001 (ip), vehicle: saline 94 % of control | dose: 400.0 mg/kg/injection, schedule: Q01DX001 (ip), vehicle: saline 111 % of control

O=C(Nc1ccc(Cl)c(Cl)c1)Nc1c(Oc2ccc(Cl)c(Cl)c2)ccc(Cl)c1S(=O)(=O)O
inactive: dose: 6.25 mg/kg/injection, schedule: Q01DX009 (ip), vehicle: saline 94 % of control | dose: 12.5 mg/kg/injection, schedule: Q01DX009 (ip), vehicle: saline 93 % of control | dose: 25.0 mg/kg/injection, schedule: Q01DX009 (ip), vehicle: saline 96 % of control

CC(C)/C(=C\c1ccccc1)C(=O)c1ccccc1
inactive: [3] 104 % of control | [4] 110 % of control

O=[N+]([O-])c1cc(/C=N/N=C2c3ccccc3-c3ccccc32)ccc1Cl
inactive: dose: 75.0 mg/kg/injection, schedule: Q01DX001 (ip), vehicle: other 86 % of control | dose: 300.0 mg/kg/injection, schedule: Q01DX001 (ip), vehicle: other 91 % of control

N#CC1CC(c2ccccc2)Nc2ccccc2N1 (centres undefined)
inactive: [5] 94 % of control | [6] 98 % of control | [7] 96 % of control

O=C(Nc1ccc2oc(=O)c3ccccc3c2c1)C(Cl)Cl
inactive: dose: 15.0 mg/kg/injection, schedule: Q01DX015 (ip), vehicle: carboxymethylcellulose (CMC) 88 % of control | dose: 30.0 mg/kg/injection, schedule: Q01DX015 (ip), vehicle: carboxymethylcellulose (CMC) 88 % of control | dose: 60.0 mg/kg/injection, schedule: Q01DX015 (ip), vehicle: carboxymethylcellulose (CMC) 94 % of control | dose: 100.0 mg/kg/injection, schedule: Q01DX001 (ip), vehicle: carboxymethylcellulose (CMC) 97 % of control | dose: 120.0 mg/kg/injection, schedule: Q01DX015 (ip), vehicle: carboxymethylcellulose (CMC) 93 % of control and 96 % of control | dose: 200.0 mg/kg/injection, schedule: Q01DX001 (ip), vehicle: carboxymethylcellulose (CMC) 109 % of control | dose: 240.0 mg/kg/injection, schedule: Q01DX015 (ip), vehicle: carboxymethylcellulose (CMC) 98 % of control | dose: 400.0 mg/kg/injection, schedule: Q01DX001 (ip), vehicle: carboxymethylcellulose (CMC) 103 % of control | dose: 480.0 mg/kg/injection, schedule: Q01DX015 (ip), vehicle: carboxymethylcellulose (CMC) 98 % of control

CSC(c1ccccc1Cl)=[N+]1CCCCC1
inactive: [5] 104 % of control | [6] 88 % of control | [7] 93 % of control

O=C(NCCCCCCCCCCNC(=O)C(Cl)Cl)C(Cl)Cl
inactive: [5] 98 % of control | [6] 90 % of control | [7] 105 % of control

CC(C)(C)NC(=O)Oc1ccc(-c2ccccc2)cc1
inactive: dose: 100.0 mg/kg/injection, schedule: Q01DX009 (ip), vehicle: Klucel (hydroxypropylcellulose) (HPC) 99 % of control | dose: 200.0 mg/kg/injection, schedule: Q01DX009 (ip), vehicle: Klucel (hydroxypropylcellulose) (HPC) 95 % of control | dose: 400.0 mg/kg/injection, schedule: Q01DX009 (ip), vehicle: Klucel (hydroxypropylcellulose) (HPC) 95 % of control

CCOC(=O)c1cc(=O)[nH]c2ccc(OC)cc12
inactive: [3] 98 % of control | [4] 102 % of control | dose: 400.0 mg/kg/injection, schedule: Q04DX003 (ip), vehicle: saline with Tween-80 91 % of control
